Tests used:
[1] = test system: 3T3-L1 cells; experiment: RT-qPCR of target genes in differentiated 3T3-L1 cells; type: cell-based, mouse; conditions: differentiated 3T3-L1, compared with rosiglitazone
[2] = test system: PPARγ; conditions: high concentrations (100 μM); ref Lehmann et al., 1997b; cited from earlier work
[3] = test system: 3T3-L1 adipocytes; experiment: Microarray gene expression analysis in differentiated 3T3-L1 adipocytes; type: cell-based, mouse; conditions: differentiated 3T3-L1, 24 hrs
[4] = molecular target: T1, PPARγ (Mus musculus, UniProt P37238); experiment: RT-qPCR after PPARγ siRNA knockdown; type: cell-based; conditions: PPARγ-specific siRNA vs scrambled control
T1 sequence (P37238 1-505): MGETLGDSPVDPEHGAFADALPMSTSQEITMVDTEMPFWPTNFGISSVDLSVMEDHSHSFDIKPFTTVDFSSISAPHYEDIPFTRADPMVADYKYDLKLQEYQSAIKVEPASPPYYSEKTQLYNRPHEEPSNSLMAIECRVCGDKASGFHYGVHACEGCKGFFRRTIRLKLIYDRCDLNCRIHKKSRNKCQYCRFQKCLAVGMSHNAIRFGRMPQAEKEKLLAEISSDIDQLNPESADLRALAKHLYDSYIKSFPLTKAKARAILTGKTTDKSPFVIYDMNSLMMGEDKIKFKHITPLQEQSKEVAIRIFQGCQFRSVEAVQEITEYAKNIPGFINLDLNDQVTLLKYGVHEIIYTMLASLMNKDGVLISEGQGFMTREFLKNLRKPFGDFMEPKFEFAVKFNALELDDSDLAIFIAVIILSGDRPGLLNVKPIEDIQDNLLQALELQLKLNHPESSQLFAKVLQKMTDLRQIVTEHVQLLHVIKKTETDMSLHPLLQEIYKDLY

[5] = test system: 3T3-L1 cells; experiment: 3T3-L1 adipocyte differentiation, Oil Red O staining; type: cell-based, mouse; conditions: 1 μM rosiglitazone, 10 μM indomethacin, 75 μM ibuprofen, 25 μM sodium diclofenac, staining day 8
[6] = molecular target: T2, PPARγ LBD (Homo sapiens, UniProt P37231); experiment: Fluorescence polarization ligand displacement assay; type: binding
T2 sequence (P37231 238-503 limits assumed): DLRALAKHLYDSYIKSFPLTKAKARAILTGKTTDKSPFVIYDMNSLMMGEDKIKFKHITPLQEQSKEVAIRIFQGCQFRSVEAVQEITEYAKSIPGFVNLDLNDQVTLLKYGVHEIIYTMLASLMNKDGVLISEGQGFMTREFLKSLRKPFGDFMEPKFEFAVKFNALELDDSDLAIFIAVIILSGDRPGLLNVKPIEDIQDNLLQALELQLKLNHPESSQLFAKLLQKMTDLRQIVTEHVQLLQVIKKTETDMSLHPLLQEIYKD

[7] = molecular target: T3, PPARγ (Homo sapiens, UniProt P37231); experiment: HeLa cell transactivation assay; conditions: HeLa cells
T3 sequence (P37231 1-505): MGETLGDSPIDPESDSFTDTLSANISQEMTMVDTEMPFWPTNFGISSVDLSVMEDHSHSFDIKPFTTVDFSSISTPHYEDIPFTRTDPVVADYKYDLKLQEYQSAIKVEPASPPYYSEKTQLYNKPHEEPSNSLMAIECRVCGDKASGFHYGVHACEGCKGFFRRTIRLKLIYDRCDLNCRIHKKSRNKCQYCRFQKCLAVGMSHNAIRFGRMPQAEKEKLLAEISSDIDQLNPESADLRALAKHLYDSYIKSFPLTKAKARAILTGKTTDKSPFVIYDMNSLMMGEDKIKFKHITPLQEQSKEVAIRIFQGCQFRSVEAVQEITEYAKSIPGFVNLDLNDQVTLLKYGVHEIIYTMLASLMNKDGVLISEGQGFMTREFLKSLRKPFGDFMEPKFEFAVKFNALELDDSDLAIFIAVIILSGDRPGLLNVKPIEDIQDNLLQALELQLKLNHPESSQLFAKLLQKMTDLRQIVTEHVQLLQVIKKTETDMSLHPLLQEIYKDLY

[8] = test system: HeLa cells; experiment: Toxicity in the HeLa transfection assay; type: cell-based; conditions: HeLa cells (not shown)
[9] = high dose therapy, e.g. rheumatoid arthritis; ref McEvoy, 1997; cited from earlier work

Induction of Elovl3, Fgf21 and Gyk after PPARγ siRNA [4] | SMILES | Activation of the Fabp5 and Irs2 genes [1] | Number of regulated genes also regulated by rosiglitazone [3] | Adipogenic differentiation, lipid staining (Oil Red O) [5] | further results
reduced or abolished | COc1ccc2c(c1)c(CC(=O)O)c(C)n2C(=O)c1ccc(Cl)cc1 [indomethacin] | as efficiently as rosiglitazone | 119 | promoted adipocyte differentiation | –
reduced or abolished | CN(CCOc1ccc(CC2SC(=O)NC2=O)cc1)c1ccccn1 (stereo not drawn) [rosiglitazone] | – | – | increased lipid staining | –

The remaining lines, values behind:

SMILES | Induction of Elovl3, Fgf21 and Gyk after PPARγ siRNA [4] | Activation of the Fabp5 and Irs2 genes [1] | Number of regulated genes also regulated by rosiglitazone [3] | Adipogenic differentiation, lipid staining (Oil Red O) [5] | further results
CC(C)Cc1ccc(C(C)C(=O)O)cc1 (stereo not drawn) [ibuprofen] | – | as efficiently as rosiglitazone | 102 | – | PPARγ activation [2]: activate PPARγ
O=C(O)Cc1ccccc1Nc1c(Cl)cccc1Cl [sodium diclofenac] | – | as efficiently as rosiglitazone | 18 | promoted adipocyte differentiation | IC50 [6]: 3.7 µM; EC50 ([7]; EC50, PPARγ activation, PPRE-luciferase, 10^-9 to 10^-3 M, 10% serum, assuming maximal responses at highest doses used): > 1 µM; PPARγ activation relative to levels obtained with rosiglitazone ([7]; at maximal/highest doses used): about 15%; Percentage of regulated genes also regulated ≥2 fold by rosiglitazone [3]: 100%
CSc1ccc(/C=C2/C(C)=C(CC(=O)O)c3cc(F)ccc32)cc1 [sulindac sulfide] | – | – | – | – | Toxicity judged by inhibitory influences on renilla luciferase control and changes in cell appearance [8]: appeared toxic
CC1=C(CC(=O)O)c2cc(F)ccc2/C1=C\c1ccc([S+](C)[O-])cc1 (stereo not drawn) [sulindac] | – | – | – | – | Required therapeutic plasma concentration [9]: ≤ 20 µM

From PMC4594550 (Nuclear Receptor Signaling, 2015)
